From US20250368634A1, “PHENYL AMIDE COMPOUNDS AND METHODS OF USE” (SCHRÖDINGER, INC., priority 2022, published 2025)

What follows are molecules tested against SOS1-KRas (G12C) (Homo sapiens (Human), UniProt Q07889) (assay: SOS1-KRas (G12C) FRET Assay). Details: not given.
Assay type: binding

Chain of SOS1-KRas (G12C) (Q07889 564-1049, stated change not applied): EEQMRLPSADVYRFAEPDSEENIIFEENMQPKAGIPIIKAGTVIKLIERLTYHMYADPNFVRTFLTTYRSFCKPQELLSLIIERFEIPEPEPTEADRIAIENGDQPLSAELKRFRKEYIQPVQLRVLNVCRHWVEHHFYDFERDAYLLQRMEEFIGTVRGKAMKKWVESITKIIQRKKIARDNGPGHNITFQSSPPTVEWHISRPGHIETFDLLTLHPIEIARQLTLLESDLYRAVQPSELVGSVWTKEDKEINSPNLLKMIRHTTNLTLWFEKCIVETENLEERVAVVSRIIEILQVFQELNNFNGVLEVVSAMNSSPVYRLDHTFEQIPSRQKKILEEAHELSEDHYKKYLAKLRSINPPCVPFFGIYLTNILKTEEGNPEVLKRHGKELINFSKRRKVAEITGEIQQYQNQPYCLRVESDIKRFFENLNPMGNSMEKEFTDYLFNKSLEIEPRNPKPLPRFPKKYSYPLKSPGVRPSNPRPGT

SMILES | IC50 [nM]
C[C@@H](NC(=O)c1cc(N2CC[C@@]23CCOC3)c(F)cc1NC1CCN(C)CC1)c1cccc(C(F)F)c1F (single isomer, unassigned) [Example 34] | 112
C[C@@H](NC(=O)c1cc(N2CC[C@]23CCOC3)c(F)cc1NC1CCN(C)CC1)c1cccc(C(F)F)c1F (single isomer, unassigned) [Example 35] | 81.5
C[C@@H]1CC(F)(F)CN1c1cc(C(=O)N[C@H](C)c2cccc(C(F)F)c2F)c(NC2CCN(C)CC2)cc1F (single isomer, unassigned) [Example 36] | 97.5
C[C@@H](NC(=O)c1cc(-c2ccncc2)c(F)cc1N[C@H]1CN2CCC1CC2)c1cccc(C(F)F)c1F (single isomer, unassigned) [Example 58] | 7.9
C[C@@H](NC(=O)c1cc(-c2ccncc2)c(F)cc1N[C@@H]1CN2CCC1CC2)c1cccc(C(F)F)c1F (single isomer, unassigned) [Example 59] | 25.7
C[C@@H](NC(=O)c1cc(N2CCOCC2)c(F)cc1NC1CCN(C)CC1)c1cccc(C(F)F)c1F [Example 1, (R)—N-(1-(3-(difluoromethyl)-2-fluorophenyl)ethyl)-4-fluoro-2-((1-methylpiperidin-4-yl)amino)-5-morpholinobenzamide] | 20.2
C[C@@H](NC(=O)c1cc(N2CCN(C)CC2)c(F)cc1NC1CCN(C)CC1)c1cccc(C(F)F)c1F [Example 5, (R)—N-(1-(3-(difluoromethyl)-2-fluorophenyl)ethyl)-4-fluoro-5-(4-methylpiperazin-1-yl)-2-((1-methylpiperidin-4-yl)amino)benzamide] | 24.3
C[C@@H](NC(=O)c1cc(N2CC3CC(C2)O3)c(F)cc1NC1CCN(C)CC1)c1cccc(C(F)F)c1F [Example 6, 5-(6-oxa-3-azabicyclo[3.1.1]heptan-3-yl)-N—((R)-1-(3-(difluoromethyl)-2-fluorophenyl)ethyl)-4-fluoro-2-((1-methylpiperidin-4-yl)amino)benzamide] | 88
C[C@@H](NC(=O)c1cc(N2CCn3nccc3C2)c(F)cc1NC1CCN(C)CC1)c1cccc(C(F)F)c1F [Example 7, (R)—N-(1-(3-(difluoromethyl)-2-fluorophenyl)ethyl)-5-(6,7-dihydropyrazolo[1,5-a]pyrazin-5 (4H)-yl)-4-fluoro-2-((1-methylpiperidin-4-yl)amino)benzamide] | 27.9
C[C@@H](NC(=O)c1cc(O[C@@H]2CCOC2)c(F)cc1NC1CCN(C)CC1)c1cccc(C(F)F)c1F [Example 9, N—((R)-1-(3-(difluoromethyl)-2-fluorophenyl)ethyl)-4-fluoro-2-((1-methylpiperidin-4-yl)amino)-5-(((R)-tetrahydrofuran-3-yl)oxy)benzamide] | 94
Cc1c([C@@H](C)NC(=O)c2cc(-c3cnn(C)c3)c(F)cc2NC2CCN(C)CC2)cccc1C(F)(F)F [Example 11, (R)-4-fluoro-5-(1-methyl-1H-pyrazol-4-yl)-N-(1-(2-methyl-3-(trifluoromethyl)phenyl)ethyl)-2-((1-methylpiperidin-4-yl)amino)benzamide] | 149
C[C@@H](NC(=O)c1cc(N2CCOCC2)c(F)cc1N[C@H]1CN2CCC1CC2)c1cccc(C(F)F)c1F [Example 15, N—((R)-1-(3-(difluoromethyl)-2-fluorophenyl)ethyl)-4-fluoro-5-morpholino-2-(((R)-quinuclidin-3-yl)amino)benzamide] | 12.9
C[C@@H](NC(=O)c1cc(N2CCOCC2)c(F)cc1N[C@@H]1CN2CCC1CC2)c1cccc(C(F)F)c1F [Example 16, N—((R)-1-(3-(difluoromethyl)-2-fluorophenyl)ethyl)-4-fluoro-5-morpholino-2-(((S)-quinuclidin-3-yl)amino)benzamide] | 41.6
C[C@@H](NC(=O)c1cc(N2C[C@@H]3C[C@H]2CO3)c(F)cc1NC1CCN(C)CC1)c1cccc(C(F)F)c1F [Example 19, 5-((1S,4S)-2-oxa-5-azabicyclo[2.2.1]heptan-5-yl)-N—((R)-1-(3-(difluoromethyl)-2-fluorophenyl)ethyl)-4-fluoro-2-((1-methylpiperidin-4-yl)amino)benzamide] | 99.4

Same assay, conditions: inhibition of SOS1:KRAS interaction; 0.5 nM His10-SOS1 (res. 564-1049), 2.5 nM GST-KRAS (res. 1-169, G12C); 2 hrs at RT

SMILES | IC50 [nM]
C[C@@H](NC(=O)c1cc(N2CC[C@@]3(CCOC3)C2)c(F)cc1NC1CCN(C)CC1)c1cccc(C(F)F)c1F (single isomer, unassigned) [Example 30] | 39.6
C[C@@H](NC(=O)c1cc(N2CC[C@]3(CCOC3)C2)c(F)cc1NC1CCN(C)CC1)c1cccc(C(F)F)c1F (single isomer, unassigned) [Example 31] | 40.4
C[C@H](CN(C)C)Nc1cc(F)c(N2CCOCC2)cc1C(=O)N[C@H](C)c1cccc(C(F)F)c1F (single isomer, unassigned) [Example 49] | 70.7
C[C@@H](CN(C)C)Nc1cc(F)c(N2CCOCC2)cc1C(=O)N[C@H](C)c1cccc(C(F)F)c1F (single isomer, unassigned) [Example 50] | 199
C[C@@H](NC(=O)c1cc(N2C[C@H]3C[C@@H]2CO3)c(F)cc1NC1CCN(C)CC1)c1cccc(C(F)F)c1F [Example 2, 5-((1R,4R)-2-oxa-5-azabicyclo[2.2.1]heptan-5-yl)-N—((R)-1-(3-(difluoromethyl)-2-fluorophenyl)ethyl)-4-fluoro-2-((1-methylpiperidin-4-yl)amino)benzamide] | 99.5
Cc1c([C@@H](C)NC(=O)c2cc(N3CCOCC3)c(F)cc2NC2CCN(C)CC2)cccc1C(F)(F)F [Example 3, (R)-4-fluoro-N-(1-(2-methyl-3-(trifluoromethyl)phenyl)ethyl)-2-((1-methylpiperidin-4-yl)amino)-5-morpholinobenzamide] | 56.9
C[C@@H](NC(=O)c1cc(N2CCOCC2)c(C#N)cc1NC1CCN(C)CC1)c1cccc(C(F)F)c1F [Example 4, (R)-4-cyano-N-(1-(3-(difluoromethyl)-2-fluorophenyl)ethyl)-2-((1-methylpiperidin-4-yl)-amino)-5-morpholinobenzamide] | 15
Cc1c([C@@H](C)NC(=O)c2cc(N3CC4(C3)CS(=O)(=O)C4)c(F)cc2NC2CCN(C)CC2)cccc1C(F)(F)F [Example 8, (R)-5-(2,2-dioxido-2-thia-6-azaspiro[3.3]heptan-6-yl)-4-fluoro-N-(1-(2-methyl-3-(trifluoromethyl)phenyl)ethyl)-2-((1-methylpiperidin-4-yl)amino)benzamide] | 74.5
C[C@@H](NC(=O)c1cc(O[C@H]2CCOC2)c(F)cc1NC1CCN(C)CC1)c1cccc(C(F)F)c1F [Example 10, N—((R)-1-(3-(difluoromethyl)-2-fluorophenyl)ethyl)-4-fluoro-2-((1-methylpiperidin-4-yl)amino)-5-(((S)-tetrahydrofuran-3-yl)oxy)benzamide] | 71.6
Cc1c([C@@H](C)NC(=O)c2cc(N3CCOCC3)c(Cl)cc2NC2CCN(C)CC2)cccc1C(F)(F)F [Example 13, (R)-4-chloro-N-(1-(2-methyl-3-(trifluoromethyl)phenyl)ethyl)-2-((1-methylpiperidin-4-yl)amino)-5-morpholinobenzamide] | 67.2
C[C@@H](NC(=O)c1cc(N2CCOCC2)c(F)cc1NC1CCNCC1)c1cccc(C(F)F)c1F [Example 14, (R)—N-(1-(3-(difluoromethyl)-2-fluorophenyl)ethyl)-4-fluoro-5-morpholino-2-(piperidin-4-ylamino)benzamide] | 21.7
C[C@@H](NC(=O)c1cc(N2CCOCC2)c(F)cc1N[C@@H]1[C@@H]2C[C@H]1CN(C)C2)c1cccc(C(F)F)c1F [Example 17, N—((R)-1-(3-(difluoromethyl)-2-fluorophenyl)ethyl)-4-fluoro-2-(((1R,5S,6s)-3-methyl-3-azabicyclo[3.1.1]heptan-6-yl)amino)-5-morpholinobenzamide] | 98.9
C[C@@H](NC(=O)c1cc(N2CCOCC2)c(F)cc1N[C@H]1[C@@H]2C[C@H]1CN(C)C2)c1cccc(C(F)F)c1F [Example 18, N—((R)-1-(3-(difluoromethyl)-2-fluorophenyl)ethyl)-4-fluoro-2-(((1R,5S,6r)-3-methyl-3-azabicyclo[3.1.1]heptan-6-yl)amino)-5-morpholinobenzamide] | 17.8
CC(=O)N1CC2(C1)CN(c1cc(C(=O)N[C@H](C)c3cccc(C(F)(F)F)c3C)c(NC3CCN(C)CC3)cc1F)C2 [Example 20, (R)-5-(6-acetyl-2,6-diazaspiro[3.3]heptan-2-yl)-4-fluoro-N-(1-(2-methyl-3-(trifluoromethyl)phenyl)ethyl)-2-((1-methylpiperidin-4-yl)amino)benzamide] | 26.4
Cc1c([C@@H](C)NC(=O)c2cc(C3CCOCC3)c(F)cc2NC2CCN(C)CC2)cccc1C(F)(F)F [Example 21, (R)-4-fluoro-N-(1-(2-methyl-3-(trifluoromethyl)phenyl)ethyl)-2-((1-methylpiperidin-4-yl)amino)-5-(tetrahydro-2H-pyran-4-yl)benzamide] | 225
CC(=O)N1CCN(c2cc(C(=O)N[C@H](C)c3cccc(C(F)(F)F)c3C)c(NC3CCN(C)CC3)cc2F)CC1 [Example 22, (R)-5-(4-acetylpiperazin-1-yl)-4-fluoro-N-(1-(2-methyl-3-(trifluoromethyl)phenyl)ethyl)-2-((1-methylpiperidin-4-yl)amino)benzamide] | 20.6
Cc1c([C@@H](C)NC(=O)c2cc(N3CCOCC3)ccc2NC2CCN(C)CC2)cccc1C(F)(F)F [Example 23, (R)—N-(1-(2-methyl-3-(trifluoromethyl)phenyl)ethyl)-2-((1-methylpiperidin-4-yl)amino)-5-morpholinobenzamide] | 358
C[C@@H](NC(=O)c1cc(N2CCOCC2)c(C#N)cc1N[C@H]1CN2CCC1CC2)c1cccc(C(F)F)c1F [Example 24, 4-cyano-N—((R)-1-(3-(difluoromethyl)-2-fluorophenyl)ethyl)-5-morpholino-2-(((R)-quinuclidin-3-yl)amino)benzamide] | 22.7
C[C@@H](NC(=O)c1cc(N2CCOCC2)c(C#N)cc1N[C@@H]1CN2CCC1CC2)c1cccc(C(F)F)c1F [Example 25, 4-cyano-N—((R)-1-(3-(difluoromethyl)-2-fluorophenyl)ethyl)-5-morpholino-2-(((S)-quinuclidin-3-yl)amino)benzamide] | 7.4
